The values that follow come from US10322191B2, “Targeted conjugates and particles and formulations thereof” (TARVEDA THERAPEUTICS, INC., priority 2014, dated 2019).

The test system of the test is NCI-H524 (ATCC) human lung cancer cells. In kind it is cell-based. Particulars: Table 15. How it is done:
Conjugates were assessed in an in vitro assay evaluating inhibition of cell proliferation. NCI-H524 (ATCC) human lung cancer cells were plated in 96 well, V-bottomed plates (Costar) at a concentration of 5,000 cells/well and 24 hours later were treated with compound for 2 hours and further incubated 70 hours. Compound starting dose was 20 μM and three-fold serial dilutions were done for a total of ten points. After 2 hours of treatment, cells were spun down, the drug containing media was removed, and fresh complete medium was added and used to resuspend the cells, which were spun again. After removal of the wash media, the cells were resuspended in complete medium, then transferred into white walled, flat bottomed 96 well plates. […] Proliferation was measured using CellTiter Glo reagent using the standard protocol (Promega) and a Glomax multi+detection system (Promega). Percent proliferation inhibition was calculated using the following formula: % inhibition=(control-treatment)/control*100. Control is defined as vehicle alone. IC50 curves were generated using the nonlinear regression analysis (four parameter) with GraphPad Prism 6.
Conjugates of the present invention were assessed in an in vitro assay evaluating inhibition of cell proliferation. NCI-H524 (ATCC) human lung cancer cells were plated in 96 well, V-bottomed plates (Costar) at a concentration of 5,000 cells/well. 24 hours later, cells were treated with either conjugate for 2 hours and further incubated 70 hours, or for octreotide competition experiments, treated with 100 μM octreotide for 30 min, and then treated with conjugate for 2 hours, and further incubated for 70 hours. Conjugate starting dose was 20 μM and three fold serial dilutions were done for a total of ten points. After 2 hours of treatment, cells were spun down, the drug containing media was removed, and fresh complete medium was added and used to resuspend the cells, which were spun again. After removal of the wash media, the cells were resuspended in complete medium, then transferred into white walled, flat bottomed 96 well plates. […] Proliferation was measured using CellTiter Glo reagent using the standard protocol (Promega) and a Glomax multi+detection system (Promega). Percent proliferation inhibition was calculated using the following formula: % inhibition=(control-treatment)/control*100. Control is defined as vehicle alone. IC50 curves were generated using the nonlinear regression analysis (four parameter) with GraphPad Prism 6.
Conjugates of the present invention were tested for their activity dependence on the somatostatin receptor. Active agent Z in the conjugate was selected from auristatin, carbazitaxel, DM1, doxorubicin, platinum, SN-38 and vinblastine. Active agent Z is connected to octreotide with various linkers. Proliferation IC50 values of the conjugates were measured. Proliferation IC50 values of the conjugates without octreotide competition were also measured. The ratio of IC50 with octreotide competition and IC50 without octreotide competition is an indicator of whether activity is at least partially dependent on bind to the somatostatin receptor.

[1] abbreviates: treated 2 hours, further incubated 70 hours, read-out: H524 IC50.
Where [2] appears, read: read-out: H524 IC50+ 100 uM octreotide, 100 μM octreotide for 30 min, then conjugate 2 hours, 70 hours incubation.

Where two headings read alike, the source gives them in different places. Bridge positions count the residues as written; N and C are the ends. Square brackets hold non-standard residues; d marks the D form. Peptide text beside a SMILES is read from it. * marks the point of attachment. NH(CH2)2SS(DM1) = COc1cc2cc(c1Cl)N(C)C(=O)C[C@H](OC(=O)[C@H](C)N(C)C(=O)CCSSCCN*)[C@]1(C)O[C@H]1[C@H](C)[C@@H]1C[C@@](O)(NC(=O)O1)[C@H](OC)/C=C/C=C(\C)C2; X1 = COc1cc2cc(c1Cl)N(C)C(=O)C[C@H](OC(=O)[C@H](C)N(C)C(=O)CCS*)[C@]1(C)O[C@H]1[C@H](C)[C@@H]1C[C@@](O)(NC(=O)O1)[C@H](OC)/C=C/C=C(\C)C2; Mpa = O=C(O)CCS

In the case of `COc1cc2cc(c1Cl)N(C)C(=O)C[C@H](OC(=O)[C@H](C)N(C)C(=O)CCSC1CC(=O)N(CCCNC(=O)CC[C@H](NC(=O)[C@@H]3CSSC[C@H](NC(=O)[C@H](N)Cc4ccccc4)C(=O)N[C@@H](Cc4ccc(O)cc4)CN[C@H](Cc4c[nH]c5ccccc45)C(=O)N[C@@H](CCCCN)C(=O)N[C@@H]([C@@H](C)O)C(=O)N3)C(=O)NCCCN3C(=O)CC(SCCC(=O)N(C)[C@@H](C)C(=O)O[C@H]4CC(=O)N(C)c5cc(cc(OC)c5Cl)C/C(C)=C/C=C/[C@@H](OC)[C@@]5(O)C[C@H](OC(=O)N5)[C@@H](C)[C@@H]5O[C@@]45C)C3=O)C1=O)[C@]1(C)O[C@H]1[C@H](C)[C@@H]1C[C@@](O)(NC(=O)O1)[C@H](OC)/C=C/C=C(\C)C2` (stereo partly shown) [Conjugate 53], the IC50 reads like this: under setting [1], 0.042 µM; under setting [2], 0.175 µM.

Take `COc1cc2cc(c1Cl)N(C)C(=O)C[C@H](OC(=O)[C@H](C)N(C)C(=O)CCSSCCNC(=O)[C@@H]1CSSC[C@H](NC(=O)[C@H](N)Cc3ccccc3)C(=O)N[C@@H](Cc3ccc(O)cc3)C(=O)N[C@H](Cc3c[nH]c4ccccc34)C(=O)N[C@@H](CCCCN)C(=O)N[C@@H]([C@@H](C)O)C(=O)N1)[C@]1(C)O[C@H]1[C@H](C)[C@@H]1C[C@@](O)(NC(=O)O1)[C@H](OC)/C=C/C=C(\C)C2` [Conjugate 59] (H-[dF]CY[dW]KTC-{NH(CH2)2SS(DM1)}; disulfide 2-7): the IC50 was found to be 0.024 µM under setting [1] and 0.17 µM under setting [2].

As to `COc1cc2cc(c1Cl)N(C)C(=O)C[C@H](OC(=O)[C@H](C)N(C)C(=O)CCSSC[C@H](NC(=O)[C@@H]1CSSC[C@H](NC(=O)[C@H](N)Cc3ccccc3)C(=O)N[C@@H](Cc3ccc(O)cc3)C(=O)N[C@H](Cc3c[nH]c4ccccc34)C(=O)N[C@@H](CCCCN)C(=O)N[C@@H]([C@@H](C)O)C(=O)N1)C(=O)O)[C@]1(C)O[C@H]1[C@H](C)[C@@H]1C[C@@](O)(NC(=O)O1)[C@H](OC)/C=C/C=C(\C)C2` [Conjugate 61], the IC50 was 0.089 µM under setting [1] and 0.274 µM under setting [2].

With `COc1cc2cc(c1Cl)N(C)C(=O)C[C@H](OC(=O)[C@H](C)N(C)C(=O)CCSSC[C@H](NC(=O)[C@@H]1CSSC[C@H](NC(=O)[C@H](N)Cc3ccccc3)C(=O)N[C@@H](Cc3ccc(O)cc3)C(=O)N[C@H](Cc3c[nH]c4ccccc34)C(=O)N[C@@H](CCCCN)C(=O)N[C@@H]([C@@H](C)O)C(=O)N1)C(=O)NC1CCCCC1)[C@]1(C)O[C@H]1[C@H](C)[C@@H]1C[C@@](O)(NC(=O)O1)[C@H](OC)/C=C/C=C(\C)C2` [Conjugate 63], the 50% inhibitory concentration (IC50) was 0.044 µM under setting [1] and 0.168 µM under setting [2].

With `CCNC(=O)N[C@H](Cc1ccccc1)C(=O)N[C@H]1CSSC[C@@H](C(=O)N[C@H](C(=O)NCCSSCCC(=O)N(C)[C@@H](C)C(=O)O[C@H]2CC(=O)N(C)c3cc(cc(OC)c3Cl)C/C(C)=C/C=C/[C@@H](OC)[C@@]3(O)C[C@H](OC(=O)N3)[C@@H](C)[C@@H]3O[C@@]23C)[C@@H](C)O)NC(=O)[C@H]([C@@H](C)O)NC(=O)[C@H](CCCCN)NC(=O)[C@@H](Cc2c[nH]c3ccccc23)NC(=O)[C@H](Cc2ccc(O)cc2)NC1=O` [Conjugate 65], the IC50 runs as follows: under setting [1], 0.03 µM; under setting [2], 0.229 µM.

For the molecule `COc1cc2cc(c1Cl)N(C)C(=O)C[C@H](OC(=O)[C@H](C)N(C)C(=O)CCSSCCC(=O)N[C@H](Cc1ccccc1)C(=O)N[C@H]1CSSC[C@@H](C(=O)N[C@@H](Cc3c[nH]c4ccccc34)C(N)=O)NC(=O)[C@H](C(C)C)NC(=O)[C@H](CCCCN)NC(=O)[C@@H](Cc3c[nH]c4ccccc34)NC(=O)[C@H](Cc3ccc(O)cc3)NC1=O)[C@]1(C)O[C@H]1[C@H](C)[C@@H]1C[C@@](O)(NC(=O)O1)[C@H](OC)/C=C/C=C(\C)C2` [Conjugate 70] ([Mpa](X1)[dF]CY[dW]KVCW-NH2; disulfide 3-8), the IC50 under setting [1] turned out to be 0.317 µM and the IC50 under setting [2] was 0.417 µM.

As to `COc1cc2cc(c1Cl)N(C)C(=O)C[C@H](OC(=O)[C@H](C)N(C)C(=O)CCSSCCC(=O)N[C@H](Cc1ccccc1)C(=O)N[C@H]1CSSC[C@@H](C(=O)N[C@H](C(=O)O)[C@@H](C)O)NC(=O)[C@H]([C@@H](C)O)NC(=O)[C@H](CCCCN)NC(=O)[C@@H](Cc3c[nH]c4ccccc34)NC(=O)[C@H](Cc3ccc(O)cc3)NC1=O)[C@]1(C)O[C@H]1[C@H](C)[C@@H]1C[C@@](O)(NC(=O)O1)[C@H](OC)/C=C/C=C(\C)C2` [Conjugate 74], the IC50 runs as follows: under setting [1], 0.549 µM; under setting [2], 0.562 µM.

As to `COc1cc2cc(c1Cl)N(C)C(=O)C[C@H](OC(=O)[C@H](C)N(C)C(=O)CCSSC(C)CCN[C@H](Cc1ccccc1)C(=O)N[C@H]1CSSC[C@@H](C(=O)N[C@H](CO)[C@@H](C)O)NC(=O)[C@H]([C@@H](C)O)NC(=O)[C@H](CCCCN)NC(=O)[C@@H](Cc3c[nH]c4ccccc34)NC(=O)[C@H](Cc3ccccc3)NC1=O)[C@]1(C)O[C@H]1[C@H](C)[C@@H]1C[C@@](O)(NC(=O)O1)[C@H](OC)/C=C/C=C(\C)C2` (stereo partly shown) [Conjugate 82], the IC50 by setting is: under setting [1], 0.148 µM; under setting [2], 0.867 µM.

Regarding `COc1cc2cc(c1Cl)N(C)C(=O)C[C@H](OC(=O)[C@H](C)N(C)C(=O)CCSSCCCN1CCN(CC(=O)N[C@H](Cc3ccccc3)C(=O)N[C@H]3CSSC[C@@H](C(=O)N[C@H](CO)[C@@H](C)O)NC(=O)[C@H]([C@@H](C)O)NC(=O)[C@H](CCCCN)NC(=O)[C@@H](Cc4c[nH]c5ccccc45)NC(=O)[C@H](Cc4ccccc4)NC3=O)CC1)[C@]1(C)O[C@H]1[C@H](C)[C@@H]1C[C@@](O)(NC(=O)O1)[C@H](OC)/C=C/C=C(\C)C2` [Conjugate 86], the IC50 worked out at 0.386 µM under setting [1] and 0.553 µM under setting [2].

Consider `COc1cc2cc(c1Cl)N(C)C(=O)C[C@H](OC(=O)[C@H](C)N(C)C(=O)CCSSCCOCCOCCOCCOCCCN[C@H](Cc1ccccc1)C(=O)N[C@H]1CSSC[C@@H](C(=O)N[C@H](CO)[C@@H](C)O)NC(=O)[C@H]([C@@H](C)O)NC(=O)[C@H](CCCCN)NC(=O)[C@@H](Cc3c[nH]c4ccccc34)NC(=O)[C@H](Cc3ccccc3)NC1=O)[C@]1(C)O[C@H]1[C@H](C)[C@@H]1C[C@@](O)(NC(=O)O1)[C@H](OC)/C=C/C=C(\C)C2` [Conjugate 96], for which the IC50 under setting [1] amounted to 0.206 µM and the IC50 under setting [2] is 0.397 µM.

As for `COc1cc2cc(c1Cl)N(C)C(=O)C[C@H](OC(=O)[C@H](C)N(C)C(=O)CCSSCCOCCOCCOCCOCCC(=O)N[C@H](Cc1ccccc1)C(=O)N[C@H]1CSSC[C@@H](C(=O)N[C@H](CO)[C@@H](C)O)NC(=O)[C@H]([C@@H](C)O)NC(=O)[C@H](CCCCN)NC(=O)[C@@H](Cc3c[nH]c4ccccc34)NC(=O)[C@H](Cc3ccccc3)NC1=O)[C@]1(C)O[C@H]1[C@H](C)[C@@H]1C[C@@](O)(NC(=O)O1)[C@H](OC)/C=C/C=C(\C)C2` [Conjugate 98], the IC50 worked out at 0.69 µM under setting [1] and 1.12 µM under setting [2].

Take `COc1cc2cc(c1Cl)N(C)C(=O)C[C@H](OC(=O)[C@H](C)N(C)C(=O)CCSCCCN[C@H](Cc1ccccc1)C(=O)N[C@H]1CSSC[C@@H](C(=O)N[C@H](CO)[C@@H](C)O)NC(=O)[C@H]([C@@H](C)O)NC(=O)[C@H](CCCCN)NC(=O)[C@@H](Cc3c[nH]c4ccccc34)NC(=O)[C@H](Cc3ccccc3)NC1=O)[C@]1(C)O[C@H]1[C@H](C)[C@@H]1C[C@@](O)(NC(=O)O1)[C@H](OC)/C=C/C=C(\C)C2` [Conjugate 100]: the IC50 by setting is: under setting [1], 0.303 µM; under setting [2], 1.05 µM.

On to `CCCCCCCCCCC(CCN[C@H](Cc1ccccc1)C(=O)N[C@H]1CSSC[C@@H](C(=O)N[C@@H](Cc2c[nH]c3ccccc23)C(N)=O)NC(=O)[C@H]([C@@H](C)O)NC(=O)[C@H](CCCCN)NC(=O)[C@@H](Cc2c[nH]c3ccccc23)NC(=O)[C@H](Cc2ccc(O)cc2)NC1=O)SSCCC(=O)N(C)[C@@H](C)C(=O)O[C@H]1CC(=O)N(C)c2cc(cc(OC)c2Cl)C/C(C)=C/C=C/[C@@H](OC)[C@@]2(O)C[C@H](OC(=O)N2)[C@@H](C)[C@@H]2O[C@@]12C` (stereo partly shown) [Conjugate 102], for which the IC50 is 0.335 µM under setting [1] and 0.579 µM under setting [2].

Turning to `COc1cc2cc(c1Cl)N(C)C(=O)C[C@H](OC(=O)[C@H](C)N(C)C(=O)CCSC1CC(=O)N(CC3CCC(C(=O)N[C@H](Cc4ccccc4)C(=O)N[C@H]4CSSC[C@@H](C(=O)N[C@H](CO)[C@@H](C)O)NC(=O)[C@H]([C@@H](C)O)NC(=O)[C@H](CCCCN)NC(=O)[C@@H](Cc5c[nH]c6ccccc56)NC(=O)[C@H](Cc5ccccc5)NC4=O)CC3)C1=O)[C@]1(C)O[C@H]1[C@H](C)[C@@H]1C[C@@](O)(NC(=O)O1)[C@H](OC)/C=C/C=C(\C)C2` (stereo partly shown) [Conjugate 104], the IC50 turned out to be 0.279 µM under setting [1] and 0.705 µM under setting [2].
